Source: patent publication US20230159510A1, “NOVEL PRMT5 INHIBITORS” (AMGEN INC., priority 2020, published 2023)

Assays:
HCT116 MTAP null cells = experiment: HCT116 proliferation assay, MTAP null cells (CellTiter-Glo, 6 days); type: cell-based; details: HCT116-MTAP null, 144 h, read-out: Protif_ HCT116-MTAP null IC50
Procedure, shortened: (§1)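 Compound titrations (top dose 1 or 10 µM, 1:3 dilution, 8 or 9 concentrations) and a DMSO control were applied to cells cultured overnight beforehand in RPMI 1640 with 10% FBS at 37° C, 5% CO2; viability was scored from luminescence.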

PRMT5/MEP50 = PRMT5/MEP50 (Homo sapiens, UniProt O14744); experiment: MTase-Glo methyl transferase assay, Method A (Histone H4 peptide, 1 µM MTA, 24 h pre-incubation); type: biochemical; parameters: made in house; details: read-out: PRMT5 MTase Glo Ki (nM, Meth. A)
Sequence of PRMT5/MEP50 (O14744 whole entry): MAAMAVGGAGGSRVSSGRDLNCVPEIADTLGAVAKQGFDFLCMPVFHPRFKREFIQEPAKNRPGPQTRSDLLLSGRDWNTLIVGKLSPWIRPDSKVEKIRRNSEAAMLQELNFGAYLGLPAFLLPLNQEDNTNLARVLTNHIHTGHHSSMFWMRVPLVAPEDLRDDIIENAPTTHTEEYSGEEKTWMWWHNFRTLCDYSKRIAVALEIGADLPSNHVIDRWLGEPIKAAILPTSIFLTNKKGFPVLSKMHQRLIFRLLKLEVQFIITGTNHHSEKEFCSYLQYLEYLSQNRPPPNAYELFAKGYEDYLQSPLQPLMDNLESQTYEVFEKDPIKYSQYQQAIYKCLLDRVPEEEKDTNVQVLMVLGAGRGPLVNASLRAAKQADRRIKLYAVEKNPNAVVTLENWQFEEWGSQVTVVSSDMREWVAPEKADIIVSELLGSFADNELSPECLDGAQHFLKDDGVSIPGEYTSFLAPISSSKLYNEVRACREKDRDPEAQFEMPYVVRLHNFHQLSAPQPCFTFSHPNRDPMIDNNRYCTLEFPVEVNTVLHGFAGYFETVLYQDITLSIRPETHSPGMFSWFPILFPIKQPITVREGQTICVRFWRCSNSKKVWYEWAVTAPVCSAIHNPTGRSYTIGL
Sequence of PRMT5/MEP50 (Q9BQA1 whole entry partner): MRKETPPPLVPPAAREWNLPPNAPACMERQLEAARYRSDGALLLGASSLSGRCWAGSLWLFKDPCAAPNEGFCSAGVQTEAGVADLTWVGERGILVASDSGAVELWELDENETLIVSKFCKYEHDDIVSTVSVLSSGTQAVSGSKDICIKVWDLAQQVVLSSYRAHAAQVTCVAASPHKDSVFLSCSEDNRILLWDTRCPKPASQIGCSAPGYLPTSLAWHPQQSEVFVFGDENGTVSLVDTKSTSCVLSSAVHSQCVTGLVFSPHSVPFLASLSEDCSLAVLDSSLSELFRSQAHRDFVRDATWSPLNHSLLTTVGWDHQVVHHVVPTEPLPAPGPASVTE
Procedure, shortened: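 Luminescent SAH detection (MTase-Glo) after a 2 h room-temperature methylation of 1 µM biotinylated H4 (1-21) peptide by 10 nM PRMT5/MEP50 with 5 µM SAM, in 50 mM Tris pH 8.0.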

HCT116 WT cells = experiment: HCT116 proliferation assay, WT cells (CellTiter-Glo, 6 days); type: cell-based; details: Homo sapiens, HCT-116, 144 h, read-out: Prolif_HCT116-WT IC50
Procedure, shortened: as §1

In the case of Cc1cc2cc(C(=O)N(Cc3ccc(C(F)(F)F)nn3)[C@H](C)c3ncccc3F)ccc2nc1N [Example 510, 2-amino-N-((1R)-1-(3-fluoro-2-pyridinyl)ethyl)-3-methyl-N-((6-(trifluoromethyl)-3-pyridazinyl)methyl)-6-quinolinecarboxamide], the IC50 (HCT116 MTAP null cells) is reported as 70 nM, the Ki (PRMT5/MEP50) is reported as 0.32 nM and the IC50 (HCT116 WT cells) is reported as 1.91 µM.
COCC(COC)N(Cc1ccc(C(F)(F)F)cn1)C(=O)c1ccc2nc(N)c(C)cc2c1 [Example 511, 2-amino-N-(1,3-dimethoxy-2-propanyl)-3-methyl-N-((5-(trifluoromethyl)-2-pyridinyl)methyl)-6-quinolinecarboxamide] was tested, and the IC50 (HCT116 MTAP null cells) was 192 nM, the Ki (PRMT5/MEP50) was 0.14 nM and the IC50 (HCT116 WT cells) was 2.34 µM.
C[C@H](c1ncccn1)N(Cc1ccc(C(F)(F)F)cn1)C(=O)c1cnc2nc(N)c(Br)cc2c1 [Example 512, 7-amino-6-bromo-N-((1R)-1-(2-pyrimidinyl)ethyl)-N-((5-(trifluoromethyl)-2-pyridinyl)methyl)-1,8-naphthyridine-3-carboxamide] was tested, and the IC50 (HCT116 MTAP null cells) was 121 nM, the Ki (PRMT5/MEP50) was 0.13 nM and the IC50 (HCT116 WT cells) was 3.1 µM.
Cc1cc2cc(C(=O)N(Cc3cc(C#N)ccn3)[C@H](C)c3ncccn3)ccc2nc1N [Example 513, 2-amino-N-((4-cyano-2-pyridinyl)methyl)-3-methyl-N-((1R)-1-(2-pyrimidinyl)ethyl)-6-quinolinecarboxamide] was tested, and the IC50 (HCT116 MTAP null cells) was 552 nM, the Ki (PRMT5/MEP50) was 2.61 nM and the IC50 (HCT116 WT cells) was > 10 µM.
Cc1cc2cc(C(=O)N(Cc3ccc(Br)nn3)[C@H](C)c3nccs3)ccc2nc1N [Example 514, 2-amino-N-((6-bromo-3-pyridazinyl)methyl)-3-methyl-N-((1R)-1-(1,3-thiazol-2-yl)ethyl)-6-quinolinecarboxamide] was tested, and the IC50 (HCT116 MTAP null cells) was 28 nM, the Ki (PRMT5/MEP50) was 0.002 nM and the IC50 (HCT116 WT cells) was 0.625 µM.
With Cc1cc2cc(C(=O)N(Cc3ccc(C(F)(F)F)nn3)[C@@H]3CCOc4ccc(F)nc43)ccc2nc1N [Example 515, (R)-2-amino-N-(6-fluoro-3,4-dihydro-2H-pyrano[3,2-b]pyridin-4-yl)-3-methyl-N-((6-(trifluoromethyl)pyridazin-3-yl)methyl)quinoline-6-carboxamide] the IC50 (HCT116 MTAP null cells) was 23 nM, the Ki (PRMT5/MEP50) was 0.02 nM and the IC50 (HCT116 WT cells) was 0.48 µM.
In the case of Cc1cc2cc(C(=O)N(Cc3ccc(C(F)(F)F)cn3)Cc3ncccc3F)cnc2nc1N [Example 537, 7-amino-N-((3-fluoropyridin-2-yl)methyl)-6-methyl-N-((5-(trifluoromethyl)pyridin-2-yl)methyl)-1,8-naphthyridine-3-carboxamide], the IC50 (HCT116 MTAP null cells) is reported as 701 nM, the Ki (PRMT5/MEP50) is reported as 0.51 nM and the IC50 (HCT116 WT cells) is reported as 5.96 µM.
With Cc1cc2cc(C(=O)N(Cc3ccc(C(F)(F)F)cn3)[C@H](C)c3cnccn3)cnc2nc1N [Example 538, 7-amino-6-methyl-N-((1R)-1-(2-pyrazinyl)ethyl)-N-((5-(trifluoromethyl)-2-pyridinyl)methyl)-1,8-naphthyridine-3-carboxamide] the IC50 (HCT116 MTAP null cells) was 732 nM, the Ki (PRMT5/MEP50) was 0.68 nM and the IC50 (HCT116 WT cells) was > 10 µM.
Cc1cc2nc(N)c(C)cc2cc1C(=O)N(Cc1ccc(C(F)(F)F)cn1)CC(C)C [Example 539, 2-amino-N-isobutyl-3,7-dimethyl-N-((5-(trifluoromethyl)pyridin-2-yl)methyl)quinoline-6-carboxamide] was tested, and the IC50 (HCT116 MTAP null cells) was 328 nM, the Ki (PRMT5/MEP50) was 0.12 nM and the IC50 (HCT116 WT cells) was 7.01 µM.
Molecule Cc1cc2cc(C(=O)N(Cc3ccc(S(=O)(=O)C4CC4)cn3)[C@H](C)c3ncccc3F)ccc2nc1N [Example 540, (R)-2-amino-N-((5-(cyclopropylsulfonyl)pyridin-2-yl)methyl)-N-(1-(3-fluoropyridin-2-yl)ethyl)-3-methylquinoline-6-carboxamide] has an IC50 (HCT116 MTAP null cells) of 194 nM, a Ki (PRMT5/MEP50) of 0.17 nM and an IC50 (HCT116 WT cells) of 6.27 µM.
For Cc1cc2cc(C(=O)N(Cc3ccc(S(C)(=O)=O)cn3)[C@H](C)c3ncccc3F)ccc2nc1N [Example 541, (R)-2-amino-N-((5-(methylsulfonyl)pyridin-2-yl)methyl)-N-(1-(3-fluoropyridin-2-yl)ethyl)-3-methylquinoline-6-carboxamide], the IC50 (HCT116 MTAP null cells) was 198 nM, the Ki (PRMT5/MEP50) was 0.13 nM and the IC50 (HCT116 WT cells) was 4.14 µM.
For Cc1cc2cc(C(=O)N(Cc3ccc(C#N)cn3)[C@H](C)c3ncccc3F)ccc2nc1N [Example 542, (R)-2-amino-N-((5-cyanopyridin-2-yl)methyl)-N-(1-(3-fluoropyridin-2-yl)ethyl)-3-methylquinoline-6-carboxamide], the IC50 (HCT116 MTAP null cells) was 110 nM, the Ki (PRMT5/MEP50) was 0.12 nM and the IC50 (HCT116 WT cells) was 4.18 µM.
For C#Cc1cc2cc(C(=O)N(Cc3ccc(C(F)(F)F)cn3)[C@H](C)c3ncccc3F)cnc2nc1N [Example 543, (R)-7-amino-6-ethynyl-N-(1-(3-fluoropyridin-2-yl)ethyl)-N-((5-(trifluoromethyl)pyridin-2-yl)methyl)-1,8-naphthyridine-3-carboxamide], the IC50 (HCT116 MTAP null cells) was 568 nM, the Ki (PRMT5/MEP50) was 0.59 nM and the IC50 (HCT116 WT cells) was > 10 µM.
Molecule Cc1c(N)nc2ccc(C(=O)N(Cc3ccc(C#N)cn3)[C@H](C)c3ncccn3)cc2c1C [Example 545, 2-amino-N-((5-cyano-2-pyridinyl)methyl)-3,4-dimethyl-N-((1R)-1-(2-pyrimidinyl)ethyl)-6-quinolinecarboxamide] has an IC50 (HCT116 MTAP null cells) of 32 nM, a Ki (PRMT5/MEP50) of 0.41 nM and an IC50 (HCT116 WT cells) of 0.478 µM.
Work on Cc1cc2cc(C(=O)N(Cc3ccc(C4CC4)cn3)CC(C)C)ccc2nc1N [Example 546, 2-amino-N-((5-cyclopropyl-2-pyridinyl)methyl)-3-methyl-N-(2-methylpropyl)-6-quinolinecarboxamide] yielded an IC50 (HCT116 MTAP null cells) of 262 nM, a Ki (PRMT5/MEP50) of 1.09 nM and an IC50 (HCT116 WT cells) of 4.39 µM.
Molecule Cc1cc2cc(C(=O)N(Cc3ccc(C4=CCN(C(=O)OC(C)(C)C)CC4)cn3)[C@H](C)c3ncccn3)ccc2nc1N [Example 547, tert-butyl (R)-6-((2-amino-3-methyl-N-(1-(pyrimidin-2-yl)ethyl)quinoline-6-carboxamido)methyl)-3’,6′-dihydro-[3,4′-bipyridine]-1′(2’H)-carboxylate] has an IC50 (HCT116 MTAP null cells) of 19 nM, a Ki (PRMT5/MEP50) of 0.02 nM and an IC50 (HCT116 WT cells) of 0.443 µM.
Work on CC(=O)N1CC=C(c2ccc(CN(C(=O)c3ccc4nc(N)c(C)cc4c3)[C@H](C)c3ncccn3)nc2)CC1 [Example 548, N-((1′-acetyl-1’,2’,3’,6′-tetrahydro[3,4′-bipyridin]-6-yl)methyl)-2-amino-3-methyl-N-((1R)-1-(2-pyrimidinyl)ethyl)-6-quinolinecarboxamide] yielded an IC50 (HCT116 MTAP null cells) of 88 nM, a Ki (PRMT5/MEP50) of 0.1 nM and an IC50 (HCT116 WT cells) of 2.08 µM.
Molecule Cc1cc2cc(C(=O)N(Cc3ncc(C#N)cc3C)[C@H](C)c3ncccn3)ccc2nc1N [Example 549, 2-amino-N-((5-cyano-3-methyl-2-pyridinyl)methyl)-3-methyl-N-((1R)-1-(2-pyrimidinyl)ethyl)-6-quinolinecarboxamide] has an IC50 (HCT116 MTAP null cells) of 275 nM, a Ki (PRMT5/MEP50) of 0.07 nM and an IC50 (HCT116 WT cells) of 5.09 µM.
Cc1cc2cc(C(=O)N(Cc3ccc(C(N)=O)cn3)[C@H](C)c3ccccc3F)ccc2nc1N [Example 550, 2-amino-N-((5-carbamoyl-2-pyridinyl)methyl)-N-((1R)-1-(2-fluorophenyl)ethyl)-3-methyl-6-quinolinecarboxamide] was tested, and the IC50 (HCT116 MTAP null cells) was 199 nM, the Ki (PRMT5/MEP50) was 0.14 nM and the IC50 (HCT116 WT cells) was 5.93 µM.
Work on COC(=O)N1CC=C(c2ccc(CN(C(=O)c3ccc4nc(N)c(C)cc4c3)[C@H](C)c3ncccn3)nc2)CC1 [Example 551, methyl 6-((((2-amino-3-methyl-6-quinolinyl)carbonyl)((1R)-1-(2-pyrimidinyl)ethyl)amino)methyl)-3’,6′-dihydro[3,4′-bipyridine]-1′(2′H)-carboxylate] yielded an IC50 (HCT116 MTAP null cells) of 21 nM, a Ki (PRMT5/MEP50) of 0.14 nM and an IC50 (HCT116 WT cells) of 0.634 µM.
